Compound | melting point [°C]
CC(C)(C)c1ccc(Cn2nccc2N)cc1 | < 17
O=S(=O)(Cl)c1ccc2c(c1)CCC2 | 33 to 42
COc1ccc(-n2c(N)nc3ccccc32)cc1 | 181 to 183
NCc1ccc(N2CCOC2=O)cc1 | 94 to 96
O=C(O)C1CC(=O)N(c2nccs2)C1 (centres undefined) | 184 to 186
O=C(O)CCS(=O)(=O)N1CCOCC1 | 163 to 165
CC(C)CCC(=O)NCCCS(N)(=O)=O | 90 to 92
O=C(O)c1cc(=O)c2cc(Br)ccc2[nH]1 | 297 to 299
O=C(O)c1cc2c(cc1Cl)N1CCCCCC1=NS2(=O)=O | 251 to 253
CCNC(=O)NC(=O)CCl | 138 to 140
Cc1cc(C)c2c(c1)c(C)cc1nnc(S)n12 | 262 to 264
O=[N+]([O-])c1ccc(C2CN=C(Nc3ccccc3)S2)cc1 (centres undefined) | 136 to 138
O=C(O)C=Cc1cc[nH]c1 | 183 to 185
CC(C)CC1(C)CC(=O)NC1=O (centres undefined) | 81 to 83
O=C(O)c1noc(-c2cccc(F)c2F)n1 | 113 to 115
O=C1NCCNC1c1cccs1 (centres undefined) | 111 to 113
CC(C)(C)n1cc(C#N)c(N)n1 | 121 to 123
Cc1cc([N+](=O)[O-])ccc1C#N | 99 to 101
Cc1nn(C)c2c1N(C(=O)OC(C)(C)C)CC(C)N2 (centres undefined) | 129 to 131
NNC(=S)N1CCOCC1 | 181 to 183
CC(Cl)C(=O)c1c[nH]c2ncccc12 (centres undefined) | 162 to 164
Nc1ccc2cccc(Cl)c2n1 | 165 to 167
O=S(=O)(Cl)c1ccc2ncccc2c1 | 87 to 89
CCNc1ccncc1 | 103 to 105

Compound | melting point [°C]
Cc1nn(-c2ccccc2Cl)c(C(F)F)c1C(=O)O | 204 to 206
CN1C(=O)CC(C(=O)O)C1c1cccs1 (centres undefined) | 139 to 141
CC(C)NS(=O)(=O)C1CCNC1 (centres undefined) | 104 to 106
COc1ccc(C2(C)NC(=O)NC2=O)cc1OC (centres undefined) | 177 to 179
CC(=O)Nc1cc(Cl)ccc1N | 137 to 139
CN(CCO)C1(CN)CCCCC1 | 73 to 75
Cc1cc2ncc(SC(=O)N(C)C)cn2n1 | 144 to 146
O=S(=O)(Nc1nccs1)c1ccc(Cl)nc1 | 229 to 231
O=Cc1ccc(-c2ccc(C(F)(F)F)cc2)s1 | 124 to 126
O=c1oc2ccccc2c(O)c1Cc1c(O)c2ccccc2oc1=O | 290 to 292
c1ccc(CCNc2nc(-c3ccccc3)cs2)cc1 | 115 to 117
CC(=O)Nc1ccc2nc(N)sc2c1 | 217 to 219
O=CC(Br)C=O | 132 to 134
O=C(O)CNC(=O)NC1CCCCC1 | 162 to 164
Clc1cc(NC2CCOc3ccccc32)ncn1 (centres undefined) | 129 to 131
C=C(C#N)C(O)c1ccc([N+](=O)[O-])cc1 (centres undefined) | 64 to 66
Cc1cc(C(=O)CCl)c(C)n1-c1c(C)n(C)n(-c2ccccc2)c1=O | 160 to 162
Clc1cnc2ccccc2n1 | 47 to 50
O=C1CS/C(=C/C(=O)c2cccc(Cl)c2)N1 | 207 to 209
Nc1ccc(S(=O)(=O)Nc2cccc(C(F)(F)F)c2)cc1 | 113 to 115
O=C(NCc1cn[nH]c1)OCc1ccccc1 | 126 to 128
Cn1c(=O)c2[nH]c(S)nc2n(C)c1=O | 328 to 330
Cc1cccc(C)c1NC(=O)C(=O)O | 163 to 165
COc1ccc(S(=O)(=O)NCC(=O)O)cc1 | 131 to 133

Compound | melting point [°C]
O=C(c1ccccc1)c1cc(Br)ccc1F | 67 to 69
Cc1ccc2[nH]cc(C(=O)O)c2c1 | 183 to 185
Nc1ccccc1CS(=O)(=O)c1ccccc1 | 172 to 174
N#Cc1ccc(OCC2CO2)c([N+](=O)[O-])c1 (centres undefined) | 85 to 87
NC1(c2cccc(F)c2)CCOCC1 | 48 to 50
O=C(O)c1ccc2c(c1)C(=O)N(CCc1ccccc1)C2=O | 215 to 217
COc1ccc(C(O)CCC(=O)O)cc1 (centres undefined) | 92 to 94
Cc1cc2c(cc1C)OC(C(=O)O)C2 (centres undefined) | 149 to 151
Nc1ccc(CCn2nnc(-c3ccccc3)n2)cc1 | 99 to 101
Cc1nn(C(F)F)c(C)c1CO | 86 to 88
Nc1ccc2nncn2c1 | 169 to 171
O=c1cc(Cl)nc2ccc(Cl)cn12 | 219 to 221
NC1(CO)Cc2ccccc2C1 | 107 to 109
O=C(O)CNC1=NS(=O)(=O)c2ccccc21 | 160 to 162
ClCc1cc(Br)c2c(c1)OCO2 | 100 to 102
CC(CO)N1Cc2cccc(N)c2C1 (centres undefined) | 129 to 131
Cc1nc(-c2cc(C(=O)O)n(C)c2)cs1 | 171 to 173
O=C(NC1CC1)c1cc([N+](=O)[O-])ccc1Cl | 180 to 182
c1nc(N2CCOCC2)c2nc[nH]c2n1 | 301 to 303
CC(C)CC1CC(=O)NC(=O)C1 | 136 to 138
Nc1ccc(N2CCCC2)cc1C(=O)O | 148 to 150
CCOC(=O)c1ccc2c(c1)nc(S)n2CC | 152 to 154
CCCS(=O)(=O)Nc1cc(N)c(F)cc1F | 95 to 97
NC(=NO)c1ccc2c(c1)OCO2 | 164 to 166

Compound | melting point [°C]
O=[N+]([O-])c1cnccc1NC1CC1 | 105 to 107
O=C(CCl)N1CCNC1=O | 195 to 197
O=c1[nH]cnc2c(Br)cccc12 | 317 to 319
CC1CCCN(c2ccccc2O)C1 (centres undefined) | 44 to 46
Cc1ccc2ncc(C(=O)O)n2c1 | 177 to 179
CCn1c(CCl)nc2c(F)cccc21 | 115 to 117
CC(C)n1ncc2c(C(=O)O)cc(C3CC3)nc21 | 144 to 146
O=C(O)c1c(O)cc(F)cc1F | 182 to 184
CC(Cl)C(=O)Nc1cccc(S(=O)(=O)N(C)C)c1 (centres undefined) | 163 to 167
CC1CNc2cccnc2O1 (centres undefined) | 132 to 134
O=C(O)CN1C(=O)Cc2ccccc21 | 220 to 222
CCOc1c(Br)cc(C(=O)O)cc1OC | 140 to 142
Nc1ccccc1C(=O)Nc1ccc2c(c1)OCCO2 | 117 to 119
CC(C)CCNC(N)=S | 93 to 95
C=CC(=O)NCC1CCCCC1 | 47 to 49
COc1ccccc1NS(=O)(=O)c1cc(N)ccc1N1CCCCC1 | 169 to 171
CCC(=O)c1ccc(OCC(=O)O)cc1 | 131 to 133
Fc1cc2nc(CCl)[nH]c2cc1F | 150 to 152
N#Cc1ccc2nc(N)ncc2c1 | 344 to 346
CCNc1ccc(C(=O)O)cc1[N+](=O)[O-] | 239 to 241
Nc1ccnc(OC2CCCCC2)c1 | 114 to 116
Cc1sc2nc(C(C)Cl)[nH]c(=O)c2c1C (centres undefined) | 215 to 217
C=CC(=O)Nc1cccc(Cl)c1 | 106 to 108
O=C(O)Cc1cccc(OCc2ccccn2)c1 | 123 to 125

Compound | melting point [°C]
CC(C)(C)C(O)CN (centres undefined) | 64 to 66
CC1(c2ccc(OC(F)F)cc2)NC(=O)NC1=O (centres undefined) | 141 to 143
O=C1C=CC(=O)N1c1cc([N+](=O)[O-])ccc1Cl | 73 to 75
Cc1ccc(S(=O)(=O)N2CCCCC2)cc1NC(=O)CCl | 107 to 109
Cc1cccc2c(O)c(C(=O)O)cnc12 | 281 to 283
Cc1c(C(=O)O)sc2ncn(C)c(=O)c12 | 215 to 217
NS(=O)(=O)c1ccc(C(F)(F)F)cn1 | 174 to 176
CN(C)C(=O)c1ccc(Cl)c(S(N)(=O)=O)c1 | 130 to 132
Cc1ccc(C(N)=O)cc1O | 181 to 183
Cc1nc(NCCc2ccccc2)sc1C(=O)O | 170 to 172
O=C(O)CSc1ccc2c(c1)CCC2 | 64 to 66
CCOC(=O)CO/N=C(\C(=O)O)c1cc[nH]n1 | 128 to 130
COc1ccc2nc(C)cc(Cl)c2c1 | 99 to 101
CC(C)(C)OC(=O)Nc1ccc(C(F)(F)F)cc1C(=O)O | 190 to 192
Brc1cnc2nccnc2c1 | 158 to 160
CNC(=CC(=O)c1ccccc1C)NC | 206 to 208
Cc1cccc(-c2nn(-c3ccccc3)cc2C(=O)O)c1 | 146 to 148
O=C(O)c1ccn(-c2ccc(Cl)cc2Cl)n1 | 179 to 181
FC(F)(F)c1cc(Cl)ccc1-n1nnnc1CCl | 101 to 103
NC(=NO)c1ccc(Br)s1 | 124 to 126
Nc1cc(-c2ccco2)no1 | 95 to 99
O=Cc1c[nH]c2cc(F)ccc12 | 176 to 178
COc1ccccc1Nc1ccc(N)cc1 | 73 to 75
N#Cc1cc([N+](=O)[O-])cnc1O | 259 to 261

Compound | melting point [°C]
Nc1ccc(C(=O)O)cc1CCCC(=O)O | 203 to 205
N#Cc1ccc(NC(=O)CCCl)cc1 | 152 to 154
CC(CN)N1CCN(c2ccccc2)CC1 (centres undefined) | 91 to 93
CCCS(N)(=O)=O | 47 to 49
O=c1[nH]nc(Br)c(=O)[nH]1 | 188 to 190
O=c1[nH]nnc2c1cnn2-c1ccccc1 | 144 to 146
O=C(CC(F)(F)F)c1cc(F)ccc1F | 45 to 47
CCOC(=O)/C(C#N)=C\Nc1ccccc1F | 142 to 144
Cc1ncsc1NC(=O)OC(C)(C)C | 136 to 138
CC(=O)c1ccc(Cl)c(Cl)c1O | 108 to 110
O=C(O)c1cc(F)cc2[nH]c(S)nc12 | 374 to 376
O=C1NC(=O)C(=Cc2ccccc2C(F)(F)F)S1 | 170 to 172
CCOc1ccc2c(c1)C(=O)NC2=O | 159 to 161
O=C(O)c1cc(N2CCCC2=O)cc(C(F)(F)F)c1 | 188 to 190
CC(N)(C(N)=O)c1cccc(Cl)c1 (centres undefined) | 103 to 105
O=C(O)c1ccc(F)c(S(=O)(=O)Cc2ncon2)c1 | 169 to 171
O=C(O)CSc1nnc(-c2ccc(Cl)cc2)o1 | 154 to 156
Nc1ccc(OCC(F)(F)F)c(C(F)(F)F)c1 | 48 to 50
Cc1c(S(=O)(=O)Cl)cnn1-c1ccc(F)cc1 | 96 to 98
Nc1ccc(Cl)cc1C(O)c1ccccc1 (centres undefined) | 105 to 107
O=C(O)c1csc(C2CC2)n1 | 123 to 125
CCOC(=O)c1ccc(S(=O)(=O)Cl)c(Br)c1 | 48 to 50
CN1CCN(c2ncc(C=O)cn2)CC1 | 90 to 92
O=C(CCl)NC(c1ccccc1)c1nccs1 (centres undefined) | 108 to 110
